Source: ChEMBL document CHEMBL3997794, “Design and synthesis of benzodiazepine analogs as isoform-selective human lysine deacetylase inhibitors” (Eur J Med Chem, 2017)

Assays:
Histone deacetylase 1 [1] = biological target: T1, Histone deacetylase 1 (Homo sapiens, UniProt Q13547); assay: Inhibition of human KDAC1 at 30 uM using substrate A after 60 mins by fluorescence assay relative to control
[2] = biological target: T2, Protein deacetylase HDAC6 (Homo sapiens, UniProt Q9UBN7); assay: Inhibition of human KDAC6 using FITC-labeled histone H4 acetylated peptide as substrate after 60 mins by fluorescence assay
T2 sequence (Q9UBN7 whole entry): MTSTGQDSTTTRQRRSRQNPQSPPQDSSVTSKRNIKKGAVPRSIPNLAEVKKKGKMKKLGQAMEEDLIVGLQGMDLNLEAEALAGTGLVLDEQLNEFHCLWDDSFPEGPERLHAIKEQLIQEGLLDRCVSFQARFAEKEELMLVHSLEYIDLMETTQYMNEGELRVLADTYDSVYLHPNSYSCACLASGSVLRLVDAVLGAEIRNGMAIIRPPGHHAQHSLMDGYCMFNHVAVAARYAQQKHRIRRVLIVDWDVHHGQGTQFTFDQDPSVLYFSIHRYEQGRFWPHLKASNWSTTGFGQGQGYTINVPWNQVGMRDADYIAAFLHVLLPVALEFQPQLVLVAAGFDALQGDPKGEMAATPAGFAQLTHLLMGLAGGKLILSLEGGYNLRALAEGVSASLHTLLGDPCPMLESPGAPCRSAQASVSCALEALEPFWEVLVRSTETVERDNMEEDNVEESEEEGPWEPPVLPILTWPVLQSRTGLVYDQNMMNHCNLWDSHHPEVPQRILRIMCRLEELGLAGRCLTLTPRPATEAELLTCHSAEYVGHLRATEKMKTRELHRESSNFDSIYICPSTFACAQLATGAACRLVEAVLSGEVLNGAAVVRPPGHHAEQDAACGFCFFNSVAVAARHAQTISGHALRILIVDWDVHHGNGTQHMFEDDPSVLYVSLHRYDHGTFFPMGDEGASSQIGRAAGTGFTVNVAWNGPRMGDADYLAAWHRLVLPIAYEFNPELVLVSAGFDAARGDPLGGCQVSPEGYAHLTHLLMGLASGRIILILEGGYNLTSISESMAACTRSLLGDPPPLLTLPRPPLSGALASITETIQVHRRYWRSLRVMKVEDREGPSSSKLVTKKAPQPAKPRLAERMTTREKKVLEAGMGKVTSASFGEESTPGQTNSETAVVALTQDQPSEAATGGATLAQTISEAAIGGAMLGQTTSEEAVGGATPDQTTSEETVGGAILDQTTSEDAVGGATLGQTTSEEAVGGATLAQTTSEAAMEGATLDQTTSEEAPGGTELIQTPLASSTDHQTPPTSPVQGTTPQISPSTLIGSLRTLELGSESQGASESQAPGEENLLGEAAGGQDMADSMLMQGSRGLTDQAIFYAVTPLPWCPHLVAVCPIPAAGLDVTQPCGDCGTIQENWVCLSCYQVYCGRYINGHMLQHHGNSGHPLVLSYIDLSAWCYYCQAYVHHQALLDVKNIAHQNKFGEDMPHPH

[3] = biological target: T3, Histone deacetylase 8 (Homo sapiens) (UniProt Q9BY41); assay: Inhibition of human KDAC8 at 30 uM after 60 mins by fluorescence assay relative to control
T3 sequence (whole entry): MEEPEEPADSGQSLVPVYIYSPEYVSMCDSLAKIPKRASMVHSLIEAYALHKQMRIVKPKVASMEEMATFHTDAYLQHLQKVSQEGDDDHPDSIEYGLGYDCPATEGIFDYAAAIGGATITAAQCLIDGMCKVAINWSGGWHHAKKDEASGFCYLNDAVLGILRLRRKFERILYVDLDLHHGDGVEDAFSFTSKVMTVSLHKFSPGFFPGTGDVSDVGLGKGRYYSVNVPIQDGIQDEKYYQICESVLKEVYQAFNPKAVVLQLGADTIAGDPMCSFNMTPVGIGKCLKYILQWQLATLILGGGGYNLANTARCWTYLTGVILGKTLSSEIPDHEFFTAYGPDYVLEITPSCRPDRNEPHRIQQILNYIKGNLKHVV

Histone deacetylase 3 [4] = biological target: T4, Histone deacetylase 3 (Homo sapiens, UniProt O15379); assay: Inhibition of human KDAC3 at 30 uM using FITC-labeled p53 acetylated peptide as substrate after 60 mins by fluorescence assay relative to control
[5] = biological target: T5, Protein deacetylase HDAC6 (Homo sapiens) (UniProt Q9UBN7); details: at 30 µM
T5 sequence (whole entry): T2 sequence (Q9UBN7 whole entry)
Description: Inhibition of human KDAC6 at 30 uM using FITC-labeled histone H4 acetylated peptide as substrate after 60 mins by fluorescence assay relative to control

Histone deacetylase 3 [6] = biological target: T4, Histone deacetylase 3; assay: Inhibition of human KDAC3 using FITC-labeled p53 acetylated peptide as substrate after 60 mins by fluorescence assay
Histone deacetylase 1 [7] = biological target: T1, Histone deacetylase 1; assay: Inhibition of human KDAC1 using substrate A after 60 mins by fluorescence assay
Histone deacetylase 8 = biological target: T6, Histone deacetylase 8 (Homo sapiens, UniProt Q9BY41); assay: Inhibition of human KDAC8 after 60 mins by fluorescence assay
T6 sequence (Q9BY41 whole entry): T3 sequence (whole entry)

T4 sequence (O15379 whole entry): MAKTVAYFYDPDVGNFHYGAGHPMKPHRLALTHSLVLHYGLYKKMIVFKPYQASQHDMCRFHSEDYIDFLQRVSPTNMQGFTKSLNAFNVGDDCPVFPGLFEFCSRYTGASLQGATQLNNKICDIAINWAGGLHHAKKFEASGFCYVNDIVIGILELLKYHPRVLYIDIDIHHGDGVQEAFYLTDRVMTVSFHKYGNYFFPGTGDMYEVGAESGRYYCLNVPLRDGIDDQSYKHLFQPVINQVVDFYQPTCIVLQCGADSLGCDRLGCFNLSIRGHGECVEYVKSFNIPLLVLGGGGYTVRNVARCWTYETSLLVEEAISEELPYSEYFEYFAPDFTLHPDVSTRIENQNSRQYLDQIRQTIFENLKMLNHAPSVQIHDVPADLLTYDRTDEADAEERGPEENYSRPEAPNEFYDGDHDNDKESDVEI
T1 sequence (Q13547 whole entry): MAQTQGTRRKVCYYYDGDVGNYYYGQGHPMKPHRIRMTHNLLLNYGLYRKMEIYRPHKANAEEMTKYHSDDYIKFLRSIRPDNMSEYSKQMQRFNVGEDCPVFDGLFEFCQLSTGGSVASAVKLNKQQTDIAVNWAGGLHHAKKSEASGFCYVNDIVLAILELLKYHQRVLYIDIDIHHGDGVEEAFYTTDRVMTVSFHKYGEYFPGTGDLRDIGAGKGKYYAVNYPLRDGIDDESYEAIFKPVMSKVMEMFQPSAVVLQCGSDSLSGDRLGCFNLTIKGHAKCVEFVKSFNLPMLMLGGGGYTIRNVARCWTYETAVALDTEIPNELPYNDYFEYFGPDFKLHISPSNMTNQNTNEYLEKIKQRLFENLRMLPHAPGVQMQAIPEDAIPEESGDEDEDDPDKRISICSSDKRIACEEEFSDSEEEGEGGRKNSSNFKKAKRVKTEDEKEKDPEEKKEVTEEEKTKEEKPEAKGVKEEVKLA

Row | SMILES | inhibition (Histone deacetylase 1 [1]) [%] | IC50 [2] [µM] | inhibition [3] [%] | inhibition (Histone deacetylase 3 [4]) [%] | inhibition [5] [%] | IC50 (Histone deacetylase 3 [6]) [µM] | IC50 (Histone deacetylase 1 [7]) [µM] | IC50 (Histone deacetylase 8) [µM]
1 | NC(=O)C[C@@H]1N=C(c2ccccc2)c2ccccc2N(CCCCC(=O)NO)C1=O | 57.6 | 5.38 | 26.2 | 90.9 | 82.2 | 3.1 | 22.5 | > 30
2 | O=C(O)CC[C@@H]1N=C(c2ccccc2)c2ccccc2NC1=O | 2.44 | > 30 | 0 | 0 | 0 | > 30 | > 30 | > 30
3 | COC(=O)CCCCN1C(=O)[C@H](CC(=O)OC(C)(C)C)N=C(c2ccccc2)c2ccccc21 | 3.65 | > 30 | 0 | 0 | 0 | > 30 | > 30 | > 30
4 | CC(C)(C)OC(=O)C[C@@H]1N=C(c2ccccc2)c2ccccc2N(CCCCC(=O)O)C1=O | 0 | > 30 | 0 | 2.62 | 0 | > 30 | > 30 | > 30
5 | O=C1Nc2ccccc2C(c2ccccc2)=N[C@H]1Cc1cn(C(c2ccccc2)(c2ccccc2)c2ccccc2)cn1 | 8.26 | > 30 | 13.4 | 0 | 12.3 | > 30 | > 30 | > 30
6 | CC(C)C[C@@H]1N=C(c2ccccc2)c2ccccc2N(CCCCC(=O)O)C1=O | 3.1 | > 30 | 7 | 0 | 0 | > 30 | > 30 | > 30
7 | O=C(C[C@@H]1N=C(c2ccccc2)c2ccccc2NC1=O)NO | 9.99 | > 30 | 12.2 | 0 | 0.88 | > 30 | > 30 | > 30
8 | C[C@@H]1N=C(c2ccccc2)c2ccccc2N(CCCCC(=O)O)C1=O | 11.3 | > 30 | 8.87 | 0 | 0.27 | > 30 | > 30 | > 30
9 | O=C(CC[C@@H]1N=C(c2ccccc2)c2ccccc2NC1=O)NO | 64.4 | > 30 | 43.8 | 4.57 | 36.5 | > 30 | 16.9 | > 30
10 | N=C(N)NCCC[C@@H]1N=C(c2ccccc2)c2ccccc2N(CCCCC(=O)NO)C1=O | 91.8 | 2.63 | 27.9 | 101 | 91.2 | 0.22 | 1.44 | > 30
11 | CC(C)(C)OC(=O)CC[C@@H]1N=C(c2ccccc2)c2ccccc2N(CCCCC(=O)O)C1=O | 7.96 | > 30 | 9.85 | 23.9 | 0 | > 30 | > 30 | > 30
12 | O=C(O)C[C@@H]1N=C(c2ccccc2)c2ccccc2NC1=O | 3.13 | > 30 | 0 | 0 | 0 | > 30 | > 30 | > 30
13 | CC(C)C[C@@H]1N=C(c2ccccc2)c2ccccc2NC1=O | 2.85 | > 30 | 0 | 0 | 5.48 | > 30 | > 30 | > 30
14 | O=C(O)CC[C@@H]1N=C(c2ccccc2)c2ccccc2N(CCCCC(=O)NO)C1=O | 48.1 | – | 29.7 | 79.8 | – | 8.71 | > 30 | > 30
15 | O=C(CCCCN1C(=O)[C@H](CCC(=O)NC(c2ccccc2)(c2ccccc2)c2ccccc2)N=C(c2ccccc2)c2ccccc21)NO | 78.7 | – | 53.1 | 99.1 | – | 0.83 | 9.24 | 23.5
16 | O=C(O)CCCCN1C(=O)[C@H](CCC(=O)O)N=C(c2ccccc2)c2ccccc21 | 13.6 | – | 6.92 | 1.47 | – | > 30 | > 30 | > 30
17 | O=C(O)CCCCN1C(=O)[C@H](CCC(=O)NC(c2ccccc2)(c2ccccc2)c2ccccc2)N=C(c2ccccc2)c2ccccc21 | 3.58 | – | 11 | 0 | – | – | > 30 | > 30
18 | COC(=O)CCCCN1C(=O)[C@H](CC(=O)NC(c2ccccc2)(c2ccccc2)c2ccccc2)N=C(c2ccccc2)c2ccccc21 | 8.7 | – | 3.62 | 5.6 | – | > 30 | > 30 | > 30
19 | Cc1c(C)c(S(=O)(=O)NC(=N)NCCC[C@@H]2N=C(c3ccccc3)c3ccccc3N(CCCCC(=O)O)C2=O)c(C)c2c1OC(C)(C)C2 | 4.96 | – | 10.2 | 3.8 | – | > 30 | > 30 | > 30
20 | O=C(CCCCN1C(=O)[C@H](CCC(=O)NO)N=C(c2ccccc2)c2ccccc21)NO | 62.5 | – | 74.7 | 92.2 | – | 2.57 | 15 | 8.52
21 | O=C(O)CCCCN1C(=O)[C@H](Cc2cncn2C(c2ccccc2)(c2ccccc2)c2ccccc2)N=C(c2ccccc2)c2ccccc21 | 7.49 | – | 10.4 | 0 | – | > 30 | > 30 | > 30
22 | O=C(CCCCN1C(=O)[C@H](CC(=O)NC(c2ccccc2)(c2ccccc2)c2ccccc2)N=C(c2ccccc2)c2ccccc21)NO | 43.1 | – | 43.9 | 89.5 | – | 4.31 | > 30 | > 30
23 | COC(=O)CCCCN1C(=O)[C@H](CCCNC(=N)NS(=O)(=O)c2c(C)c(C)c3c(c2C)CC(C)(C)O3)N=C(c2ccccc2)c2ccccc21 | 4.8 | – | 7.3 | 3.33 | – | > 30 | > 30 | > 30
24 | COC(=O)CCCCN1C(=O)[C@H](CCC(=O)NC(c2ccccc2)(c2ccccc2)c2ccccc2)N=C(c2ccccc2)c2ccccc21 | 7.24 | – | 0 | 0 | – | > 30 | > 30 | > 30
25 | N[C@H](Cc1ccc(Cl)cc1Cl)C(=O)N1Cc2ccccc2C1 | – | > 30 | – | – | – | 20 | 27.4 | 1.09
26 | O=C(O)CCCCN1C(=O)[C@H](CC(=O)NC(c2ccccc2)(c2ccccc2)c2ccccc2)N=C(c2ccccc2)c2ccccc21 | 8.49 | – | 11.4 | 7.32 | – | > 30 | > 30 | > 30
